Key:
T7 RNA polymerase = biological target: T1, T7 RNA polymerase (Escherichia phage T7, UniProt P00573); test: run-off transcription, agarose gel and RNA yield by A260; assay type: biochemical; conditions: ATP, GTP, NotI-linearized pET24-Syn5RNAP, 6 mM MgCl2, pH 8.0, no KCl, 37°C
T1 construct: gene 1

Syn5 RNA polymerase = biological target: T2, Syn5 RNA polymerase (Synechococcus phage Syn5, UniProt A4ZR96); test: as above; assay type: biochemical; conditions: ATP, GTP, NotI-linearized pET24-Syn5RNAP, 6 mM MgCl2, pH 8.0, no KCl, 24°C
T2 construct: gene 15; His-tagged, pET24 (NdeI/NotI), expressed in E. coli BL21(DE3); single-subunit
T2 sequence (A4ZR96 1-779): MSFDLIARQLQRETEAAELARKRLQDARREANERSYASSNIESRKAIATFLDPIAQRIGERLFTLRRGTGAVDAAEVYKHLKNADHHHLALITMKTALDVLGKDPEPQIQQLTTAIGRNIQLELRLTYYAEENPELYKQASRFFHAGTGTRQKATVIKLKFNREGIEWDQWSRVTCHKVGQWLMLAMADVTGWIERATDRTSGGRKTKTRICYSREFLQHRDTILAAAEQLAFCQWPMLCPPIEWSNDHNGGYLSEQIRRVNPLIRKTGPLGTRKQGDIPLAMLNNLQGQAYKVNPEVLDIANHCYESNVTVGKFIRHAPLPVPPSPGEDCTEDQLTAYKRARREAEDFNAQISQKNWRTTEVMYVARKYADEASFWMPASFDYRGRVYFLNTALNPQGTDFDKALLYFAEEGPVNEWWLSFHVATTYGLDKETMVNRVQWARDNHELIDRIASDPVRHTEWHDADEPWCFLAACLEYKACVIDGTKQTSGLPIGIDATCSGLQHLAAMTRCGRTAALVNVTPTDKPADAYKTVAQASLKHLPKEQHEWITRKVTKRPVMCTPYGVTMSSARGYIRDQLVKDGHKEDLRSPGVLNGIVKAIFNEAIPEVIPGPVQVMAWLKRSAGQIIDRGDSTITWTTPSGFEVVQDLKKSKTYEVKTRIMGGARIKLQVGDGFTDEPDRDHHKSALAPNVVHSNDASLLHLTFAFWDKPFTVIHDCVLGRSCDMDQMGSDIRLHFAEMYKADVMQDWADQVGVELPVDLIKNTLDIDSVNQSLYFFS

T1 sequence (P00573 whole entry): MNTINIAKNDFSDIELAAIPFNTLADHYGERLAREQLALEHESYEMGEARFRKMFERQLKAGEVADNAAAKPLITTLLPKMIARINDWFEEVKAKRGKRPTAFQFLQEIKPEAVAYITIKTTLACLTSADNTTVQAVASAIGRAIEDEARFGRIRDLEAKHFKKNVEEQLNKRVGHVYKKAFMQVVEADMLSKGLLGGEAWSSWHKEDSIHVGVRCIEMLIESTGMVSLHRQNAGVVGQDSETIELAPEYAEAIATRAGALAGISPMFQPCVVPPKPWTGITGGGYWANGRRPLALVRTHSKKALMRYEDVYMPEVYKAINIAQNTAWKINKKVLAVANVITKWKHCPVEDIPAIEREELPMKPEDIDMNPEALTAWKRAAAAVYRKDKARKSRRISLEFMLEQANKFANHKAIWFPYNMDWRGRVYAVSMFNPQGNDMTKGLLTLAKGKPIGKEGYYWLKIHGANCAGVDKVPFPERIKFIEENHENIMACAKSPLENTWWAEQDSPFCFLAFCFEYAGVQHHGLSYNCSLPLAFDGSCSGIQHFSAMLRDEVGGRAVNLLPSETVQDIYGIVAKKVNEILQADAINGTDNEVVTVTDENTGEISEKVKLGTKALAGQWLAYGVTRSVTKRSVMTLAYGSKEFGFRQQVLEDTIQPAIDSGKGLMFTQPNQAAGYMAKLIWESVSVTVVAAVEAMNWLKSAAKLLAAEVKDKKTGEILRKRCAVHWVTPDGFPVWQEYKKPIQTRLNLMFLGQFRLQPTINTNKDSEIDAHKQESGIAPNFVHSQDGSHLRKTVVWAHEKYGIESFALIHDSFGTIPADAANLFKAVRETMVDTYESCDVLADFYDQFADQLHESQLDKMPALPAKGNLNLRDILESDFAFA

Row | SMILES | run-off transcription, agarose gel and RNA yield by A260 (T7 RNA polymerase; replaces UTP at 600 µM, CTP) | run-off transcription, agarose gel and RNA yield by A260 (Syn5 RNA polymerase; replaces UTP at 600 µM, CTP) | run-off transcription, agarose gel and RNA yield by A260 (T7 RNA polymerase; replaces CTP at 600 µM, UTP) | run-off transcription, agarose gel and RNA yield by A260 (Syn5 RNA polymerase; replaces CTP at 600 µM, UTP)
1 | O=c1[nH]cc([C@@H]2O[C@H](COP(=O)(O)OP(=O)(O)OP(=O)(O)O)[C@@H](O)[C@H]2O)c(=O)[nH]1 [pseudouridine-5′-triphosphate] | T7 RNA polymerase also incorporates 5mC and Ps-U at comparable efficiencies | the efficiency by which Syn5 RNA polymerase incorporated 5mC and Ps-U |  | 
2 | Cc1cn([C@@H]2O[C@H](COP(=O)(O)OP(=O)(O)OP(=O)(O)O)[C@@H](O)[C@H]2O)c(=O)nc1N [5-methylcytidine-5′-triphosphate] |  |  | T7 RNA polymerase also incorporates 5mC and Ps-U at comparable efficiencies | the efficiency by which Syn5 RNA polymerase incorporated 5mC and Ps-U

Reference: publication PMC3950665, “Syn5 RNA polymerase synthesizes precise run-off RNA products” (Nucleic Acids Research, 2013)
